We go through 30 compounds from US9828338B2, “Carbamate derivatives of lactam based N-acylethanolamine acid amidase (NAAA) inhibitors” (The Regents of the University of California, priority 2013, dated 2017).

The target in one assay is T1, r-NAAA (Rattus norvegicus, UniProt Q5KTC7).
T1 construct: Lysosomal NAAA protein preparation was obtained by homogenizing male Sprague-Dawley rat lungs; tissue Charles River (animals); host or cells: male Sprague-Dawley rat lung, soluble lysosomal fraction
T1 sequence (Q5KTC7 34-362): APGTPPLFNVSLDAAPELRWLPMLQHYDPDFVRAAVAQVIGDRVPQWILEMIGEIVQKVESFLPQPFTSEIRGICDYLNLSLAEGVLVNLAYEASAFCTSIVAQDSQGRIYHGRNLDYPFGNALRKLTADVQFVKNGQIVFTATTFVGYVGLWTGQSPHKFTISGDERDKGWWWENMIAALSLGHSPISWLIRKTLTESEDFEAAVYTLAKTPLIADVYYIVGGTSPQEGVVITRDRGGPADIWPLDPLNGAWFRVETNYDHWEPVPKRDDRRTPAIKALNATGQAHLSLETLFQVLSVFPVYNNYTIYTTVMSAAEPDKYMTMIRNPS
The assay can be described thus: UPLC/MS r-NAAA assay.
Conditions: not given
Format: biochemical. Here is the method:
Lysosomal NAAA protein preparation was obtained by homogenizing male Sprague-Dawley rat lungs (Charles River) in 20 mM Tris-HCl buffer pH 7.4 containing 0.32M sucrose. […] Supernatants were then centrifuged at 12,000 xg for 30 min at 4° C. Pellets were then resuspended in PBS pH 7.4 and subjected to a freeze/thaw cycle at −80° C. The suspension was finally centrifuged at 105,000×g for 1 h at 4° C. The supernatant was then used in the enzymatic assay.
NAAA protein preparation was pre-incubated with various concentrations of test compounds or vehicle control in 100 mM NaH2PO4/Citrate buffer, 1% Triton-X, 3 mM DTT (pH 4.5) for 30 min at 37° C. Samples were then incubated with heptadecenoylethanolamide (50 μM, Avanti Polar Lipids) at 37° C. for 30 min. The reaction was terminated by addition of cold methanol containing heptadecanoic acid (NuCheck Prep) as internal standard. Samples were then analyzed by UPLC/MS (Acquity, Waters). […] The column temperature was 40° C. Electrospray ionization was in the negative mode, capillary voltage was 0.5 kV, cone voltage was […], desolvation temperature was 500° C. N2 was used as drying gas at a flow rate of 1000 L/hour and a temperature of 500° C. […] Calibration curves were generated using commercial heptadecenoic acid (NuCheck Prep) Inhibition of NAAA activity was calculated as reduction of heptadecenoic acid in the samples compared to vehicle controls. IC50 values were calculated by non-linear regression analysis of log [concentration]/inhibition curves using GraphPad Prism 5 (GraphPad Software Inc., CA—USA) applying a standard slope curve fitting.
For the compound `O=C(N[C@H]1CNC1=O)OC1CCC(Cc2ccccc2)CC1` (mixture of isomers) [Example 7, (1s,4R) and (1r,4S)-(4-Benzylcyclohexyl)-N-[(3S)-2-oxoazetidin-3-yl]-carbamate], half-maximal inhibition (IC50) required 6.6 µM.

As for `O=C(N[C@H]1CNC1=O)OCCCCCc1ccccc1` [Example 3, 5-Phenylpentyl-N-[(3S)-2-oxoazetidin-3-yl]-carbamate], it took 0.62 µM to reach half-maximal inhibition (IC50).

Compound `CCc1ccc(CCCCOC(=O)N[C@H]2CNC2=O)cc1` [Example 39, 4-(4-Ethylphenyl)-butyl-N-[(3S)-2-oxoazetidin-3-yl]-carbamate] displayed an IC50 of 1 µM.

With `Cc1cccc(C)c1CCCCOC(=O)N[C@H]1CNC1=O` [Example 14, 4-(2,6-Dimethylphenyl)-butyl-N-[(3S)-2-oxoazetidin-3-yl]-carbamate], the IC50 turned out to be 8.1 µM.

Compound `Cc1ccccc1-c1ccc(COC(=O)N[C@H]2CNC2=O)cc1C` [Example 41, [3-Methyl-4-(o-tolyl)-phenyl]-methyl-N-[(3S)-2-oxoazetidin-3-yl]-carbamate] had an IC50 of 0.91 µM.

`O=C(N[C@H]1CNC1=O)OCC/C=C/c1ccccc1` [Example 11, [(E)-4-Phenylbut-3-enyl]-N-[(3S)-2-oxoazetidin-3-yl]-carbamate] came in with an IC50 of 6.62 µM.

With `O=C(N[C@H]1CNC1=O)OCc1cccc(Cc2ccccc2)c1` [Example 32, (3-Benzylphenyl)-methyl-N-[(3S)-2-oxoazetidin-3-yl]-carbamate], 1.2 µM corresponded to half-maximal inhibition (IC50).

Compound `O=C(N[C@H]1CNC1=O)OCCCCC1CCOCC1` [Example 48, 4-Tetrahydropyran-4-yl-butyl-N-[(3S)-2-oxoazetidin-3-yl]-carbamate] came in with an IC50 of 12.6 µM.

Regarding `C[C@H]1NC(=O)[C@@H]1NC(=O)OCCCCC1CCCCC1` [Example 80, 4-Cyclohexylbutyl-N-[(2R,3R)-2-methyl-4-oxo-azetidin-3-yl]-carbamate], half-maximal inhibition (IC50) was put at 21.5 µM.

The assay is the same for the next values; noted with them: @ 30 μM; read-out: r-NAAA UPLC/MS assay % inhib.
Take `C[C@H]1NC(=O)[C@H]1NC(=O)OCCCCCc1ccccc1` [Example 79, 5-Phenylpentyl-N-[(2R,3S)-2-methyl-4-oxo-azetidin-3-yl]-carbamate]: the inhibition at 30 µM worked out at 35%.

Staying with this assay, now noted: @100 μM.
Turning to `CC1(C)NC(=O)[C@H]1NC(=O)OCc1ccc(C2CCCCC2)cc1` [Example 88, (4-Cyclohexylphenyl)-methyl-N-[(3S)-2,2-dimethyl-4-oxo-azetidin-3-yl]-carbamate], the “r-NAAA UPLC/MS assay (n.a.)” value is given as “n.a. (n.a. = <10% inhib. @100 μM)”.

The assay is the same for the next values; noted with them: @100 μM; read-out: r-NAAA UPLC/MS assay % inhib.
For `CC1(C)NC(=O)[C@H]1NC(=O)OCCCCC1CCCCC1` [Example 86, 4-Cyclohexylbutyl-N-[(3S)-2,2-dimethyl-4-oxo-azetidin-3-yl]-carbamate], the inhibition at 100 µM was found to be 18%.

The same assay, now with this note: read-out: r-NAAA UPLC/MS assay % inhib.
As for `O=C(N[C@H]1CNC1=O)OCc1ccc(-c2ccncc2)cc1` [Example 45, [4-(4-Pyridyl)-phenyl]-methyl-N-[(3S)-2-oxoazetidin-3-yl]-carbamate], the inhibition at 30 µM turned out to be 48%.

Take `C[C@H]1NC(=O)[C@H]1NC(=O)OCc1ccc(C2CCCCC2)cc1` [Example 78, (4-Cyclohexylphenyl)-methyl-N-[(2R,3S)-2-methyl-4-oxo-azetidin-3-yl]-carbamate]: the inhibition at 100 µM was 55%.

The target of a further assay is T2, human NAAA (Homo sapiens, UniProt Q02083).
T2 construct: made in house; host or cells: HEK293 cells, stably transfected; soluble lysosomal fraction used as enzyme source
T2 sequence (Q02083 29-359): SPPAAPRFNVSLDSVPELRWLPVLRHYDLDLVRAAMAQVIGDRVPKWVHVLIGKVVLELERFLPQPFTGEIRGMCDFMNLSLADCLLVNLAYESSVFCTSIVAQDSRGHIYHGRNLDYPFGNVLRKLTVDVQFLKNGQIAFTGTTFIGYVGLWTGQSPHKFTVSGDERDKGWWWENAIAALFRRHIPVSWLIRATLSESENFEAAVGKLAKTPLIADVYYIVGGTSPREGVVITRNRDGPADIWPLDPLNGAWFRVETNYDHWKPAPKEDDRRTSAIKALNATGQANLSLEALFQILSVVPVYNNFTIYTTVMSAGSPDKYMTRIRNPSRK
The assay can be described thus: Fluorogenic h-NAAA assay. It counts as biochemical.
Conditions: not given
Here is the method: Hek293 cells stably transfected with the human NAAA coding sequence cloned from a human spleen cDNA library were used as enzyme source. Recombinant HEK-hNAAA pellets were resuspended in homogenizing buffer, and sonicated. Samples were centrifuged at 800×g for 15 min at 4° C. and the resultant supernatants were then ultracentrifuged at 12,000×g for 30 min at 4° C. The pellets were resuspended in PBS pH 7.4 on ice and subjected to a freeze/thaw cycle at −80° C. The suspension was finally centrifuged at 105,000×g for 1 h at 4° C. Protein concentration was measured and samples aliquoted and stored at −80° C. until use.
The assay was run in Optiplate 96-wells black plates, in a total reaction volume of 200 μL. NAAA protein preparation (4.0 μg) was pre-incubated for 10 min with various concentrations of test compounds or vehicle control (5% DMSO) in 100 mM citrate/phosphate buffer (pH 4.5) containing 3.0 mM DTT, 0.1% Triton X-100, 0.05% BSA, 150 mM NaCl. N-(4-methyl-2-oxo-chromen-7-yl)-hexadecanamide was used as a substrate (5.0 μM) and the reaction carried over for 30 min at 37° C. The samples were then read in a Perkin Elmer Envision plate reader using an excitation wavelength of 360 nm and emission 460 nm. IC50 values were calculated by non-linear regression analysis of log [concentration]/inhibition curves using GraphPad Prism 5 (GraphPad Software Inc., CA—USA) applying a standard slope curve fitting.
On to `O=C(N[C@H]1CNC1=O)OCc1ccc(-c2ccccc2F)cc1` [Example 71, [4-(2-Fluorophenyl)-phenyl]-methyl-N-[(3S)-2-oxoazetidin-3-yl]-carbamate], for which 0.365 µM corresponded to half-maximal inhibition (IC50).

In turn, `C#CCCCCCCCCCOC(=O)N[C@H]1CNC1=O` [Example 103, Undec-10-ynyl-N-[(3S)-2-oxoazetidin-3-yl]-carbamate] returned an IC50 of 0.006 µM.

Take `O=C(N[C@H]1CNC1=O)OCc1ccc(-c2nc3ccccc3o2)cc1` [Example 54, [4-(1,3-Benzoxazol-2-yl)-phenyl]-methyl-N-[(3S)-2-oxoazetidin-3-yl]-carbamate]: the concentration for half-maximal inhibition (IC50) was 0.675 µM.

Compound `CCC[C@H]1CC[C@H](COC(=O)N[C@H]2CNC2=O)CC1` [Example 104] showed an IC50 of 0.006 µM.

As to `O=C(N[C@H]1CNC1=O)OCc1ccc(-c2ccccc2)c(F)c1` [Example 60, (3-Fluoro-4-phenyl-phenyl)-methyl-N-[(3S)-2-oxoazetidin-3-yl]-carbamate], the midpoint of inhibition, the IC50, lay at 0.237 µM.

The same assay, now with this note: @ 2.5 μM; read-out: h-NAAA Fluorogenic assay % inhib.
Consider `O=C(N[C@H]1CNC1=O)OCc1ccc(C(=O)N2CCCCC2)cc1` [Example 69, [4-(Piperidine-1-carbonyl)-phenyl]-methyl-N-[(3S)-2-oxoazetidin-3-yl]-carbamate], for which the inhibition at […] worked out at 12%.

Take `O=C(N[C@H]1CNC1=O)OCc1ccc(C(=O)NCc2ccccc2)cc1` [Example 70, [4-(Benzylcarbamoyl)-phenyl]-methyl-N-[(3S)-2-oxoazetidin-3-yl]-carbamate]: the inhibition at […] was 40%.

Consider `O=C(N[C@H]1CNC1=O)OCc1ccc(I)cc1` [Example 101, (4-Iodophenyl)-methyl-N-[(3S)-2-oxoazetidin-3-yl]-carbamate], for which the inhibition at […] came out at 95%.

`O=C(N[C@H]1CNC1=O)OCC1CCC(F)(F)CC1` [Example 99, (4,4-Difluorocyclohexyl)-methyl-N-[(3S)-2-oxoazetidin-3-yl]-carbamate]: the inhibition at […] worked out at 35%.

Consider `O=C(N[C@H]1CNC1=O)OCc1cnc(-c2ccccc2)nc1` [Example 98, (2-Phenylpyrimidin-5-yl)-methyl-N-[(3S)-2-oxoazetidin-3-yl]-carbamate], for which the inhibition at […] is 26%.

For `O=C(N[C@H]1CNC1=O)OCCCc1ccccc1` [Example 27, 3-Phenylpropyl-N-[(3S)-2-oxoazetidin-3-yl]-carbamate], the inhibition at […] amounted to 45%.

Take `C[C@@H]1NC(=O)[C@@H]1NC(=O)OCc1ccc(-c2ccccc2)cc1` [Example 84, (4-Phenylphenyl)-methyl-N-[(2S,3R)-2-methyl-4-oxo-azetidin-3-yl]-carbamate]: the inhibition at […] amounted to 18%.

Take `O=C(N[C@H]1CNC1=O)OCCCOC1CCCCC1` [Example 50, 3-(Cyclohexoxy)-propyl-N-[(3S)-2-oxoazetidin-3-yl]-carbamate]: the inhibition at […] was 25%.

Take `O=C(N[C@H]1CNC1=O)OCc1ccc(C(=O)NC2CCCCC2)cc1` [Example 68, [4-(Cyclohexylcarbamoyl)-phenyl]-methyl-N-[(3S)-2-oxoazetidin-3-yl]-carbamate]: the inhibition at […] is 18%.

The assay is the same for the next values; noted with them: @ 50 μM; read-out: h-NAAA Fluorogenic assay % inhib.
For the compound `O=C(N[C@H]1CNC1=O)OCCc1ccccc1` [Example 28, Phenethyl-N-[(3S)-2-oxoazetidin-3-yl]-carbamate], the inhibition at 50 µM came to 65%.

With `O=C(N[C@H]1CNC1=O)OCc1ccc(C(=O)N2CCOCC2)cc1` [Example 53, [4-(Morpholine-4-carbonyl)-phenyl]-methyl-N-[(3S)-2-oxoazetidin-3-yl]-carbamate], the inhibition at 50 µM is 55%.

A word on the IC50: it is the concentration needed to halve the response being measured. The low end stands for higher potency, the high end for lower potency.
